In patent publication US20060194814A1, “Benzamide compounds” (priority 2003, published 2006):
Counter-ions that a name gives are not always drawn. Like-named read-outs stand apart in the source and are kept apart here.

Columns and labels:
[1] = system: multi-drug resistant HIV MDR-769 strain; experiment: HIV MDR 769 strain replication in HeLa cells, without pre-medication; format: cell-based
[2] = system: Y1 mouse adrenal tumor cells; experiment: dbcAMP-induced 20á-hydroxyprogesterone synthesis in Y1 cells; format: cell-based; details: Y1 cells
Method: (§1) Culture media were then changed and cells were stimulated with 1 mM dbcAMP and the treatment for 24 to 48 hours. […] The synthesis of 20 —OH progesterone and progesterone in Y1 and MA-10 cell media respectively were measured by RIA (Brown et al., 1992). H295R human adrenal tumor cells were seeded in 48-well plates at 10^5 cells/well and incubated for 24 hours. […] At the end of the incubation time period, cells were treated with 1 mM dbcAMP for 48 hours. Cortisol levels in the media were determined by radioimmunoassay as previously described (Amri et al., 1996).

[3] = system: MA-10 mouse Leydig tumor cells; experiment: dbcAMP-induced progesterone synthesis in MA-10 cells; format: cell-based
Method: as §1

[4] = system: MA-10 mouse Leydig tumor cells; format: cell-based
Method: Cell viability at the end of the incubation protocol described above was assessed using the mitochondrial integrity 3-(4,5-dimethylthiazol-2-yl)-2,5-diphenyl tetrazolium bromide (MTT) assay (Trevigen, Gaithersburg, Md.). Briefly, 10 l of the MTT solution were added to the cells in 100 l medium. After an incubation period of 4 hours, 100 l of detergent were added and cells were incubated overnight at 37° C. Formazan blue formation was quantified at 600 nm and 690 nm using the Victor quantitative detection spectrophotometer (EGG-Wallac, Gaithersburg, Md.) and the results expressed as (OD600-OD690).

[5] = target: T1, peripheral-type benzodiazepine receptor (PBR) (Mus musculus, UniProt P50637); experiment: PBR radioligand binding ([3H]PK 11195) in procaine-treated cells; details: 1 μM procaine, 48 hour treatment; radioligand [3H]PK 11195
T1 construct: endogenous in cells; Y1 inferred from context
Method: Radioligand binding assays were performed as previously described (Papadopoulos et al., 1990, J. Biol. Chem. 265, 3772-3779). In brief, cells were scrapped from culture flasks into PBS, dispersed by trituration, and centrifuged at 1200×g for 5 min. The cells were resuspended in PBS to a final concentration of 10-50 μg protein/100 μl. Saturation binding studies were performed in a final volume of 300 μl in the presence of the radioligand [^3H]PK 11195 (specific activity 83.5 Ci/mmol; NEN Life Science Products) at the indicated concentrations. Nonspecific binding was determined in the presence of 6 μM of the homologous non-radioactive ligand. After 180 min incubation at 4° C., the assays were stopped by filtration through Whatman GF/C filters (Clifton, N.J.) and washed with 10 ml PBS. Bound radioactivity was determined by liquid scintillation counting. Bound [^3H]PK 11195 and [^3H]cholesterol were quantified by liquid scintillation spectrometry. Dissociation constants (Kd), the number of binding sites (Bmax) and Hill coefficients (nH) for PK 11195 and cholesterol were determined by Curve-Fit (Prism version 3.0, GraphPad Software Inc., San Diego, Calif.).

[6] = system: steroidogenesis acute regulatory protein (StAR); experiment: Immunoblot of StAR protein in Y1 cells; format: cell-based, mouse; details: 1 μM procaine, 48 hour treatment
Method: At the end of the treatment protocol described above, Y1 cells at 90% confluency were washed 2 times with PBS, sonicated 15 seconds in extraction buffer and centrifuged at 18,500 g for 15 minutes at 4° C. Pellets were resuspended in ice-cold lysis buffer (1% Nonidet 40 in extraction buffer), sonicated briefly, and incubated on ice for 1 hour. After centrifugation (22,500 g×30 min, 4° C.), the supernatant was mixed in sample buffer 6× (0.27 M SDS, 0.6 M dithiothreitol, 0.18 M bromphenol blue in 7 ml of 0.5 M Tris-HCl, pH 6.8, and 3 ml glycerol) and boiled for 5 minutes. Proteins were subjected to SDS-PAGE (4-20% gradient SDS polyacrylamide gel) and electrophoretically transferred onto nitrocellulose membranes. The transblot sheets were blocked with 5% non fat dry milk in 25 mM Tris HCl, pH 7.5, 150 mM NaCl, and 0.1% Tween 20 overnight at 4° C. Membranes were then incubated with appropriately diluted primary antibodies 1:800 for anti-P-450scc (Research Diagnostics Inc. Flanders, N.J.) and 1:200 for anti-StAR (Amri et al., 1996), and the reaction was detected by a peroxidase-conjugated secondary antibody (Santa Cruz Biotechnology, Santa Cruz, Calif.) and enhanced chemiluminescence (Amersham Life, Arlington Heights, Ill.). The densities of the appropriate bands were determined using the OptiQuant Acquisition & Analysis software (Packard BioScience).

SMILES: CCN(CC)CCOC(=O)c1ccc(N)cc1 [SP01, procaine HCl]
- effect on HIV MDR 769 strain replication [1]: effectively blocked
- effect on HIV MDR 769 strain replication ([1]; concentrations higher than 1 nM): not effective
- inhibition of HIV MDR 769 viral replication ([1]; concentrations up to 1 nM): 75%
- effect on dbcAMP-induced 20á-hydroxyprogesterone production [2]: decreased in a dose-dependent manner
- lowest concentration inhibiting cAMP-induced steroid synthesis [2]: 0.1 µM
- inhibition of dbcAMP-stimulated steroid formation ([2]; procaine at 1 M / 1 iM): 90%
- effect on dbcAMP-induced progesterone synthesis [3]: did not affect
- effect on cell viability (MTT) [4]: did not affect MA-10 cell viability
- Bmax of PBR ligand binding in procaine-treated cells [5]: 29±4 pmol/mg protein
- effect on levels of the mature 30 kDa StAR protein [6]: did not affect
